Values quoted from earlier work as cited in paper PMC3206815, “An Essential Farnesylated Kinesin in Trypanosoma brucei” (PLoS ONE, 2011).

Biological target: T1, TB-PFT (T. brucei protein farnesyl transferase) (Trypanosoma brucei, UniProt Q57U08+Q580J3)
T1 construct: gene Tb07.8P12.660; heterodimer
T1 sequence (Q57U08 1-585): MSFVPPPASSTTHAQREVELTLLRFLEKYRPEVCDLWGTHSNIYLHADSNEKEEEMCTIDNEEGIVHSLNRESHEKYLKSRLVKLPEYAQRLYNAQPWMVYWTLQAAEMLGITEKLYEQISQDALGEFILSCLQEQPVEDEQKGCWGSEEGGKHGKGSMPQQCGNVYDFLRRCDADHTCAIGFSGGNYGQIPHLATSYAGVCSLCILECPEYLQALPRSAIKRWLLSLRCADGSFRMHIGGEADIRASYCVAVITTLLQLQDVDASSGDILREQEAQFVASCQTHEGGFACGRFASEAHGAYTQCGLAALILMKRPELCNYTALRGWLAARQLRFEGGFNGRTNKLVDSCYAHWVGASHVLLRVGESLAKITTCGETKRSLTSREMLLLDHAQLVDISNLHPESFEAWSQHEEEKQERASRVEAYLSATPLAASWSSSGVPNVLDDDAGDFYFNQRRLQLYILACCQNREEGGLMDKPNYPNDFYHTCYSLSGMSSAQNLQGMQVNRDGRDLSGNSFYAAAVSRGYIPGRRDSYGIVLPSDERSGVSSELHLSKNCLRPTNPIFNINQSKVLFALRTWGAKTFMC
T1 sequence (Q580J3 1-612): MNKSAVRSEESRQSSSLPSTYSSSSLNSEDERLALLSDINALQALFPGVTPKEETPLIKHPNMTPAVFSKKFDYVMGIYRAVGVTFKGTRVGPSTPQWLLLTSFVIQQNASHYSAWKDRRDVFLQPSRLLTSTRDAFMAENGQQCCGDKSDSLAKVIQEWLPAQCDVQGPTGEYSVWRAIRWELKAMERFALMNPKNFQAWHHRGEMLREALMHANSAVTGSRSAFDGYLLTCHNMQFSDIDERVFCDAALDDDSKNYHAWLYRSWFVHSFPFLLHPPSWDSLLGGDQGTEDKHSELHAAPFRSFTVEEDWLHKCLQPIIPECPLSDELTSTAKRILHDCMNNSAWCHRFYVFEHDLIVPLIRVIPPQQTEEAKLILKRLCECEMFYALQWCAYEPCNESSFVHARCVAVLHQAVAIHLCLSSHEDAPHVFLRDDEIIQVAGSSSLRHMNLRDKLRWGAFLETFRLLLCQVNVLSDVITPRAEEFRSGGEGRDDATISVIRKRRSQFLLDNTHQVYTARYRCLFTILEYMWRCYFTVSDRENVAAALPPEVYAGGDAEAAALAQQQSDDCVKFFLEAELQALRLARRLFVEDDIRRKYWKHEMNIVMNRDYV
Assay: PFT inhibition, method not described here
Format: biochemical
Details: value printed without citation or assay method; cited from earlier work

LN-59
IC50: 0.035 µM
